Key:
[1] = Bubble pressure tensiometry (dynamic surface tension, calculated CMC); type: physicochemical; conditions: bubble tensiometry
Description: Dynamic surface tensions of certain formulations were measured using a KRÜSS BP100 BPT Mobile bubble pressure tensiometer. Samples of the solution of Example 7 were tested by adding the test solution to a glass dish and lowering the disposable capillary tip and temperature probe into the solution. The dynamic setting was selected, and the instrument was set to collect 30 data points, the bubble age increasing from about 10 ms to about 30,000 ms.
Bubble tensiometry was used to calculate the Critical Micelle Concentration (CMC) value for each of the solutions.
FIG. 1 presents a comparison of the bubble age to surface tension for RM14A at CMC, sub-CMC, and super-CMC concentrations. FIG. 2 presents a comparison of the bubble age to surface tension for RM14B at CMC, sub-CMC, and super-CMC concentrations. FIG. 3 presents a comparison of the bubble age to surface tension for RM14C at CMC, sub-CMC, and super-CMC concentrations. FIG. 4 presents a comparison of the bubble age to surface tension for RM12A, RM13A, RM14A, and RM15A at super-CMC concentrations. FIG. 5 presents a comparison of the bubble age to surface tension for RM12A, RM13A, RM14A, and RM15A at CMC concentrations. FIG. 6 presents a comparison of the bubble age to surface tension for RM12A, RM13A, RM14A, and RM15A at CMC concentrations. FIG. 7 presents a comparison of bubble age to surface tension for RM12A, RM13A, RM14A, and RM15A at sub-CMC concentrations.

[2] = Conductivity testing (calculated CMC); type: physicochemical; conditions: for Calculated CMC, All Points: all data points; for Calculated CMC, Average: average of outer, inner, all points; for Calculated CMC, Inner Points: inner data points; for Calculated CMC, Outer Points: outer data points
Description: Conductivities were measured using a VWR 23609-216 Pure H2O Tester conductivity meter. The meter probe was submerged into the test solution and swirled gently. Once the meter settled, the value was recorded.
The conductivity of the solutions of Example 7 were tested at dilutions ranging from 0.1 M to 0.001 M. The data was plotted on a logarithmic scale and analyzed in the style of Heard and Ashworth. For each sample, three graphs were reported and fitted with a trend curve: outer data points, inner data points, all data points. […] An average CMC value was determined from the three trend samples (outer data points, inner data points, all data points) in order to more accuracy predict the CMC value.
LINEST was utilized to determine the slope and intercept for each line, and a combination of INTERCEPT and SLOPE was used to determine the intersection of the two fitted lines. The Critical Micelle Concentration (CMC) was determined for each of these plots by the intercept of the two lines. Set forth below in Table 5 is the calculated CMC for each graph and the average CMC.

Calculated CMC [1] | Calculated CMC, All Points [2] | Calculated CMC, Average [2] | Calculated CMC, Inner Points [2] | Calculated CMC, Outer Points [2] | Structure (SMILES)
0.0167 M | 0.0132 M | 0.0132 M | 0.0152 M | 0.0113 M | N=C(NCCCCCCNC(=N)NC(=N)Nc1ccc(Cl)cc1)NC(=N)Nc1ccc(Cl)cc1.O=C(O)C(O)C(O)C(O)C(O)C(O)CO.O=C(O)C(O)C(O)C(O)C(O)C(O)CO [RM14B, Chlorhexidine di-β73-glucoheptonate]
0.0168 M | 0.0130 M | 0.0126 M | 0.0135 M | 0.0113 M | N=C(NCCCCCCNC(=N)NC(=N)Nc1ccc(Cl)cc1)NC(=N)Nc1ccc(Cl)cc1.O=C(O)C(O)C(O)C(O)C(O)C(O)CO.O=C(O)C(O)C(O)C(O)C(O)C(O)CO [RM14A, Chlorhexidine di-β73-glucoheptonate]
0.0173 M | 0.0133 M | 0.0133 M | 0.0154 M | 0.0113 M | N=C(NCCCCCCNC(=N)NC(=N)Nc1ccc(Cl)cc1)NC(=N)Nc1ccc(Cl)cc1.O=C(O)C(O)C(O)C(O)C(O)C(O)CO.O=C(O)C(O)C(O)C(O)C(O)C(O)CO [RM15A, Chlorhexidine di-β81-glucoheptonate]
0.0200 M | 0.0132 M | 0.0123 M | 0.0122 M | 0.0115 M | N=C(NCCCCCCNC(=N)NC(=N)Nc1ccc(Cl)cc1)NC(=N)Nc1ccc(Cl)cc1.O=C(O)C(O)C(O)C(O)C(O)C(O)CO.O=C(O)C(O)C(O)C(O)C(O)C(O)CO [RM13A, Chlorhexidine di-α-glucoheptonate]
0.0167 M | 0.0132 M | 0.0126 M | 0.0131 M | 0.0116 M | N=C(NCCCCCCNC(=N)NC(=N)Nc1ccc(Cl)cc1)NC(=N)Nc1ccc(Cl)cc1.O=C(O)C(O)C(O)C(O)C(O)C(O)CO.O=C(O)C(O)C(O)C(O)C(O)C(O)CO [RM13B, Chlorhexidine di-α-glucoheptonate]
0.0198 M | 0.0130 M | 0.0126 M | 0.0134 M | 0.0113 M | N=C(NCCCCCCNC(=N)NC(=N)Nc1ccc(Cl)cc1)NC(=N)Nc1ccc(Cl)cc1.O=C(O)C(O)C(O)C(O)C(O)C(O)CO.O=C(O)C(O)C(O)C(O)C(O)C(O)CO [RM13C, Chlorhexidine di-α-glucoheptonate]

The next lines start with the compound.

Structure (SMILES) | Calculated CMC [1] | Calculated CMC, All Points [2] | Calculated CMC, Average [2] | Calculated CMC, Inner Points [2] | Calculated CMC, Outer Points [2]
N=C(NCCCCCCNC(=N)NC(=N)Nc1ccc(Cl)cc1)NC(=N)Nc1ccc(Cl)cc1.O=C(O)[C@H](O)[C@@H](O)[C@H](O)[C@H](O)CO.O=C(O)[C@H](O)[C@@H](O)[C@H](O)[C@H](O)CO [RM12A, Chlorhexidine digluconate] | 0.0168 M | 0.0133 M | 0.0126 M | 0.0128 M | 0.0118 M
N=C(NCCCCCCNC(=N)NC(=N)Nc1ccc(Cl)cc1)NC(=N)Nc1ccc(Cl)cc1.O=C(O)C(O)C(O)C(O)C(O)C(O)CO.O=C(O)C(O)C(O)C(O)C(O)C(O)CO [RM14C, Chlorhexidine di-β73-glucoheptonate] | 0.0166 M | 0.0131 M | 0.0133 M | 0.0156 M | 0.0111 M
N=C(NCCCCCCNC(=N)NC(=N)Nc1ccc(Cl)cc1)NC(=N)Nc1ccc(Cl)cc1.O=C(O)[C@H](O)[C@@H](O)[C@H](O)[C@H](O)CO.O=C(O)[C@H](O)[C@@H](O)[C@H](O)[C@H](O)CO [RM12C, Chlorhexidine digluconate] | 0.0195 M | 0.0133 M | 0.0131 M | 0.0143 M | 0.0116 M
N=C(NCCCCCCNC(=N)NC(=N)Nc1ccc(Cl)cc1)NC(=N)Nc1ccc(Cl)cc1.O=C(O)[C@H](O)[C@@H](O)[C@H](O)[C@H](O)CO.O=C(O)[C@H](O)[C@@H](O)[C@H](O)[C@H](O)CO [RM12B, Chlorhexidine digluconate] | 0.0195 M | 0.0133 M | 0.0127 M | 0.0131 M | 0.0117 M
